Test results: patent publication US6828327B2, “Macroheterocylic compounds useful as kinase inhibitors” (Ortho-McNeil Pharmaceutical, Inc., priority 2000, dated 2004)

Columns and labels:
GSK 3-β = molecular target: T1, GSK 3-β (Oryctolagus cuniculus, UniProt G1T8E2); assay: Glycogen Synthase Kinase 3-β Assay; assay type: biochemical, rabbit; conditions: inhibition value, recombinant rabbit GSK 3-β, PPI-2 substrate
T1 construct: purchased New England Biolabs, Beverly Mass
Description: The inhibitory activity of a compound against Glycogen Synthase Kinase 3-β (GSK 3-β) activity was assessed using a recombinant rabbit GSK 3-β according to the procedure below.
The mixture was reacted for 90 minutes at 30° C. to allow phosphorylation of the PPI-2 protein and then the protein in the reaction was precipitated using 10% trichloroacetic acid (TCA). The precipitated protein was collected on filter plates (MultiScreen-DV, Millipore, Bedford Mass.), which were subsequently washed. Finally, the radioactivity was quantified using a TopCount Scintillation Counter (Packard, Meridian Conn.). […] Staurosporine or Valproate (both available from several commercial sources), known inhibitors of GSK-3-β, were used as a positive control for screening.

Casein Kinase 1 = molecular target: T2, Casein Kinase 1 (Rattus norvegicus, UniProt Q06486); assay: Biotinylated Peptide Substrate Assay, Casein Kinase 1; assay type: biochemical
T2 construct: a protein truncation at amino acid 318 of the C-terminal portion of the rat CK1 delta isoform; purchased New England Biolabs, Beverly, Mass; 6030; host or cells: E. coli
T2 sequence (Q06486 1-317 limits assumed): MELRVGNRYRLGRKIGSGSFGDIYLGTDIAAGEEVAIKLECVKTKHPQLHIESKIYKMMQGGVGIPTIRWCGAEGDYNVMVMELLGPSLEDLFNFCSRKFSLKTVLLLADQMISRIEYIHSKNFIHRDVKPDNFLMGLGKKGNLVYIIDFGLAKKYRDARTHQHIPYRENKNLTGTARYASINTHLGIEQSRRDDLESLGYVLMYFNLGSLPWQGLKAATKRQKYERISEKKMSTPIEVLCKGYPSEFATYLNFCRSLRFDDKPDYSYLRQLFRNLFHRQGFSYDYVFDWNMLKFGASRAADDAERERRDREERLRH
Description: (§1) Assays to test inhibition of a compound for other kinases were preformed using methods that measure the amount of phosphorylation of a biotinylated peptide substrate. Biotinylated peptide substrates were selected from the literature as appropriate for the enzyme being evaluated.
(§2) A kinase reaction mix was prepared in 50 mM Tris-HCl pH=8, 10 mM MgCl2, 0.1 mM Na3VO4, 1 mM DTT, 10 μM ATP, 0.25-1 μM biotinylated peptide substrate, 0.2-0.8 μCuries per well ^33P-γ-ATP (2000-3000 Ci/mmol). Assay conditions vary slightly for each protein kinase, for example, insulin receptor kinase requires 10 mM MnCl2 for activity and Calmodulin-dependent protein kinase requires calmodulin and 10 mM CaCl2. The reaction mixture was dispensed into the wells of a streptavidin coated Flashplate and 1 μL drug stock in 100% DMSO was added to a 100 μL reaction volume resulting in a final concentration of 1% DMSO in the reaction. Enzyme was diluted in 50 mM Tris-HCl pH=8.0, 0.1% BSA and added to each well. The reaction was incubated for one hour at 30° C. in the presence of compound. After one hour the reaction mix was aspirated from the plate and the plate was washed with PBS containing 100 mM EDTA. The plate was read on a scintillation counter to determine ^33P-γ-ATP incorporated into the immobilized peptide. Test compounds were assayed in duplicate at 8 concentrations (100 uM, 10 uM, 1 uM, 100 nM, 10 nM, 1 nM, 100 pM, 10 pM). A maximum and minimum signal for the assay was determined on each plate.
(§3) The IC50 was calculated from the dose response curve of the percent inhibition of the maximum signal in the assay according to the formula:
(§4) % Inhibition=((MS−BS)/(TCS−BS))×100%
(§5) where MS=Maximum Signal, BS=Background Signal, TCS=Test Compound Signal. The percent inhibition was graphed against the log concentration of the test compound. Known inhibitor compounds as appropriate references for the kinase being assayed were also included on each plate.
(§6) VEGF-R (vascular endothelial growth factor receptor-2) is a fusion protein containing a polyhistidine tag at the N-terminus followed by amino acids 786-1343 of the rat VEGF-R2 kinase domain (GenBank Accession #U93306). Protein Kinase A is the catalytic subunit of cAMP dependent protein kinase-A purified from bovine heart (Upstate Biotech, Lake Placid, N.Y., Cat#14-114). CDK1 (cyclin dependent kinase 1) is isolated from insect cells expressing both the human CDK1 catalytic subunit and its positive regulatory subunit cyclin B (New England Biolabs, Beverly, Mass., Cat. #6020). Casein Kinase-1 is a protein truncation at amino acid 318 of the C-terminal portion of the rat CK1 delta isoform produced in E.coli (New England Biolabs, Beverly, Mass., Cat. #6030). […]

CDK1 = molecular target: T3, CDK1 (Homo sapiens, UniProt P06493); assay: Biotinylated Peptide Substrate Assay, CDK1; assay type: biochemical; conditions: read-out: CDK1 Kinase Assay (IC50 uM)
T3 construct: purchased New England Biolabs, Beverly, Mass; 6020; host or cells: insect cells
Description: as §1, §2, §3, §4, §5, §6

L6 muscle cells = assay: Cell-Based GSK 3-β Assay (glycogen content of L6 muscle cells); conditions: for 14C-Glucose Incorporation (dpm): L6 cells, 2 hours, 0.0 μM control Cpd 1 1640, Cpd 2 2078; for glycogen synthesis in L6 skeletal muscle cells: upon exposure to compound, result in words
Description: Glycogen content of L6 muscle cells was measured according to the method described in Berger and Hayes, Anal. Biochem., 1998, 261, 159-163.
Briefly, L6 cells were serum starved overnight in alpha-MEM containing 0.1%. On the following day, cells were washed three times with 300 μL KRPH buffer (150 mM NaCl, 5 mM KCl, 2.9 mM Na2HPO4, 1.25 mM MgSO4, 1.2 mM CaCl2, 10 mM HEPES, pH 7.4) and labeled with 200 μL alpha-MEM containing 5.5 mM ^14C-Glucose (0.1 μCi) in the presence of vehicle (DMSO) or compounds. After 2 hours, cells were washed three times with ice-cold PBS and glycogen was precipitated for 2 hours using ice-cold 66% EtOH. Precipitated glycogen was then washed three times with ice-cold 66% EtOH and ^14C-glycogen was quantified using a TopCount (Packard).
Compounds were tested in separate experiments at the dose levels shown. Where shown, the 0.0 μM dose was used as a control.

T3 sequence (P06493 whole entry): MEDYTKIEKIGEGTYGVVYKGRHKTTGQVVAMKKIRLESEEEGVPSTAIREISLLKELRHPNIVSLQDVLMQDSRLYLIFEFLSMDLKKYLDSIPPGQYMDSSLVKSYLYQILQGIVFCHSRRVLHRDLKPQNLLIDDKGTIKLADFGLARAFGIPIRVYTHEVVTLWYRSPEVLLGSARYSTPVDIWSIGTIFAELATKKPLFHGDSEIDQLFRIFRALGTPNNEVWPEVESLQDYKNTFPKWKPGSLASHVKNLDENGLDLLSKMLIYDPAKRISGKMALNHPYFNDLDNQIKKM
T3 sequence (P14635 whole entry partner): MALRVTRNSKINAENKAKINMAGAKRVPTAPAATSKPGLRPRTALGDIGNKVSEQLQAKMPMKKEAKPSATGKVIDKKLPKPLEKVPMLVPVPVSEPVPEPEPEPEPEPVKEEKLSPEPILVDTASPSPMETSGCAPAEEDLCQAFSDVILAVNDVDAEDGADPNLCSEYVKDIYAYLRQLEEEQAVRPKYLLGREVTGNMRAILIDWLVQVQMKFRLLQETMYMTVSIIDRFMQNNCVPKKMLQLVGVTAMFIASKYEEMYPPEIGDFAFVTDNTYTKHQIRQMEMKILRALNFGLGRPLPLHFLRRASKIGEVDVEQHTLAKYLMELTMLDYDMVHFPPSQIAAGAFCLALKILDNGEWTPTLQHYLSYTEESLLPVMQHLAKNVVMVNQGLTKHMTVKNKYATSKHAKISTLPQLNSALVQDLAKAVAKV
T1 sequence (G1T8E2 1-432): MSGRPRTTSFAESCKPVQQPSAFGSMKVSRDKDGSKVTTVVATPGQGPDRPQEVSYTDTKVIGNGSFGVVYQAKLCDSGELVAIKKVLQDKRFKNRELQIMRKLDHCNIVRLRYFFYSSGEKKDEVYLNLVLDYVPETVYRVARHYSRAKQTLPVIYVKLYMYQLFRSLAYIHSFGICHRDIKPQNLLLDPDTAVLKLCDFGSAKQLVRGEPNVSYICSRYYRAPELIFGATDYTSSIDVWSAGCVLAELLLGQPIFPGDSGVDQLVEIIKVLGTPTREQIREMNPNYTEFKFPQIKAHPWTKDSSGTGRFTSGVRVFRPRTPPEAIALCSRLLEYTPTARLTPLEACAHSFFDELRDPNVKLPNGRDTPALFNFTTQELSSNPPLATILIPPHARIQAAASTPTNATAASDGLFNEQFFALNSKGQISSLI

| SMILES | IC50 (GSK 3-β) | IC50 (Casein Kinase 1) | IC50 (CDK1) | 14C-Glucose Incorporation (dpm) (L6 muscle cells; dose 1 μM) | 14C-Glucose Incorporation (dpm) (L6 muscle cells; dose 3 μM) | 14C-Glucose Incorporation (dpm) (L6 muscle cells; dose 10 μM) | glycogen synthesis in L6 skeletal muscle cells (L6 muscle cells) |
| --- | --- | --- | --- | --- | --- | --- | --- |
| O=C1NC(=O)C2=C1c1cn(c3ccccc13)CCOCCOCCn1cc2c2cccnc21 [Cpd 10] | 128 nM | > 10 µM | 0.422 µM | – | – | – | – |
| O=C1NC(=O)C2=C1c1cn(c3ncccc13)CCOCCOCCOCCn1cc2c2cccnc21 [Cpd 1] | 27 nM | > 10 µM | > 10 µM | 1898 dpm | 1958 dpm | 2426 dpm | increased glycogen synthesis |
| O=C1NC(=O)C2=C1c1cn(c3ncccc13)CCOCCOCCOCCOCCn1cc2c2cccnc21 [Cpd 2] | 32 nM | > 10 µM | > 10 µM | 2224 dpm | 2518 dpm | 2806 dpm | increased glycogen synthesis |
| O=C1NC(=O)C2=C1c1cn(c3ccccc13)CCOCCOCCOCCn1cc2c2cccnc21 [Cpd 11] | 15 nM | > 10 µM | 0.457 µM | – | – | – | – |
